According to ChEMBL document CHEMBL3588777, “Acetate-Derived Metabolites from the Brown Alga Lobophora variegata” (2015):
Converted amounts (≈) assume the structure as drawn.

Tests used:
Staphylococcus aureus [1] = assay: Antibacterial activity against Staphylococcus aureus ATCC 25923 assessed as inhibition of bacterial growth at 100 ug/mL incubated at 37 degC for 24 hrs by broth microdilution assay; assay type: functional; conditions: ATCC 25923, 24 h
Staphylococcus aureus [2] = assay: Antibacterial activity against Staphylococcus aureus ATCC 25923 assessed as inhibition of bacterial growth incubated at 37 degC for 24 hrs by broth microdilution assay; assay type: functional; conditions: ATCC 25923, 24 h
Enterococcus faecalis [3] = assay: Antibacterial activity against Enterococcus faecalis ATCC 29212 assessed as inhibition of bacterial growth at 100 ug/mL incubated at 37 degC for 24 hrs by broth microdilution assay; assay type: functional; conditions: ATCC 29212, 24 h
Escherichia coli [4] = assay: Antibacterial activity against Escherichia coli ATCC 25922 assessed as inhibition of bacterial growth at 100 ug/mL incubated at 37 degC for 24 hrs by broth microdilution assay; assay type: functional; conditions: ATCC 25922, 24 h
Enterococcus faecalis [5] = assay: microbe, parasite or virus in culture; conditions: ATCC 29212, 24 h
Description: Antibacterial activity against Enterococcus faecalis ATCC 29212 assessed as inhibition of bacterial growth incubated at 37 degC for 24 hrs by broth microdilution assay

Escherichia coli [6] = assay: microbe, parasite or virus in culture; conditions: ATCC 25922, 24 h
Description: Antibacterial activity against Escherichia coli ATCC 25922 assessed as inhibition of bacterial growth incubated at 37 degC for 24 hrs by broth microdilution assay

| Compound | inhibition at 100 µg/mL (Staphylococcus aureus [1]) | MIC90 (Staphylococcus aureus [2]) | inhibition at 100 µg/mL (Enterococcus faecalis [3]) | inhibition at 100 µg/mL (Escherichia coli [4]) | MIC90 (Enterococcus faecalis [5]) | MIC90 (Escherichia coli [6]) |
| --- | --- | --- | --- | --- | --- | --- |
| CCCCCCCCCCCC1=C(C(C)=O)C(=O)C[C@@H](O)C1 | 100% | 25 µg/mL (≈ 81 µM) | 23% | 29% |  |  |
| CCCCCCCCCCCc1cccc(O)c1C(C)=O | 65% |  | -1% | -3.3% |  |  |
| CCCCCCCCCCCc1cc(O)cc(O)c1C(C)=O | 17% |  | -9.8% | -1% |  |  |
| CCCCCCCCCCC[C@H](O)C[C@H]1CC(=O)C=C(C)O1 | -8.5% |  | 23% | 27% |  |  |
| CCCCCCCCCCCC1CC=C/C(=C\C(C)=O)O1 (stereo not given) | -95% |  | 21% | 15% |  |  |
| CCCCCCCCCCCC1CC=C/C(=C/C(C)=O)O1 (stereo not given) | -57% |  | 19% | 25% |  |  |
| CCCCC/C=C\C/C=C\CCCCCCCC(=O)/C=C(/C)O | -17% |  | -10% | -2.4% |  |  |
| O=C(O)c1cn(C2CC2)c2cc(N3CCNCC3)c(F)cc2c1=O [CIPROFLOXACIN] |  | 0.5 µg/mL (≈ 1.51 µM) |  |  | 1 µg/mL (≈ 3.02 µM) | 0.016 µg/mL (≈ 0.0483 µM) |
